Measured values from patent US9485983B2, “Use of connexin channel inhibitors to protect grafts” (Universiteit Gent, priority 2012, dated 2016).
“Also recorded” adds a separate entry of the source.

Experiments:
Format in all cases: cell-based
[1] = tested on: C6 glioma cells stably transfected with Cx43; test: TUNEL control experiment with staurosporine; settings: 2 μM, 6 hours
[2] = tested on: ECs and SMCs of femoral arteries; test: TUNEL apoptosis assay on cryopreserved/thawed human femoral arteries; settings: for effect on number of TUNEL-positive cells (in words) / reduction of TUNEL-positive cell death counts (fraction): femoral arteries; for Protection relative to total number of cells (%) / Protection relative to total number of dead cells (%): Arteries, Gap27 200 μM; for reduction of TUNEL-positive cell death counts (fraction): 200 μM during cryopreservation, thawing and DMSO washout
Text: (§1) Tissue samples of human femoral artery and saphenous vein were obtained from deceased donors (age: 45±1.7 years) according to a protocol that was approved by the ethical committee of the University Hospital Ghent, Belgium. […] Exclusion criteria were: presence of ulcers, calcific atheromas, rupture of intima or media, traction lesions due to prelevation in arteries; signs of phlebitis, atheromatosis, parietal abnormalities, or lesions of intima in veins. The vessels were placed in HBSS-HEPES and prior to cryopreservation, DMSO (15%) was added. […] Grafts were cryopreserved at 1° C./minute in a −80° C. freezer and, after two weeks, stored for at least another two weeks in a liquid nitrogen container (−196° C.).
(§2) For vessel analysis and cell death studies, tissues were thawed in a 37° C. water bath and kept on ice before the next steps. DMSO was then progressively washed out by a stepwise reduction of the DMSO concentration in the HBSS-HEPES solution. To that purpose, the blood vessels remained for 4 minutes in HBSS-HEPES solution with, respectively, 10%, 5%, 2.5% and 0% DMSO. In Gap27-treated vessels, the peptide (200 μM) was present during DMSO washout.
(§3) After DMSO washout, vessels were embedded in paraffin. To this purpose, blood vessels were transferred to a neutral buffered 4% formalin solution for fixation during 24 hours and were then embedded in paraffin. Paraffin-embedded vessel specimens were cut into […] serial sections along a transverse plane and were then stained with hematoxylin and eosin for general inspection, immunostained for connexins to establish the expression of various connexin types in the blood vessels or stained for cell death (apoptosis) making use of in situ terminal TdT-mediated dUTP nick end-labeling (TUNEL) with the In Situ Cell Death Detection Kit (Roche, Vilvoorde, Belgium). After any of these staining procedures, images were taken on a Nikon TE300 inverted microscope using a ×10 or ×20 objective and equipped with a Nikon DS-Ri1 cooled color CCD camera (Nikon Belux, Brussels, Belgium).
(§4) Embedded artery or vein sections were deparaffinized, rehydrated through graded alcohol, and permeabilized with 0.1% TRITON® X-100 at room temperature (8 minutes incubation). Slides were rinsed twice in a phosphate-buffered saline (PBS). Apoptosis was detected through in situ terminal deoxynucleotidyl transferase (TdT)-mediated deoxyuridine triphosphate (dUTP) nick end-labeling (TUNEL), using the In Situ Cell Death Detection Kit (Roche, Vilvoorde, Belgium). Slides were incubated with the TUNEL reaction mixture containing TdT and fluorescein-dUTP for 1 hour at 37° C.; thereafter, they were rinsed three times in PBS and mounted as described for immunostaining. […] TUNEL-stained blood vessel tissue sections were examined by epifluorescence microscopy as described for immunostaining. Four areas from each slide were examined and five slides per blood vessel were analyzed. The number of TUNEL-positive cells is given as a percentage of the total number of cells quantified from DAPI-positive counts.

[3] = tested on: ECs and SMCs of saphenous veins; test: TUNEL apoptosis assay on cryopreserved/thawed human saphenous veins; settings: for effect on number of TUNEL-positive cells (in words) / reduction of TUNEL-positive cell death counts (fraction): saphenous veins; for Protection relative to total number of cells (%) / Protection relative to total number of dead cells (%): Veins, Gap27 200 μM; for reduction of TUNEL-positive cell death counts (fraction): 200 μM during cryopreservation, thawing and DMSO washout
Text: as §1, §2, §3, §4

bovine oocytes [4] = test: Cleavage rate of vitrified/thawed COCs; settings: Gap27-treated vitrified/thawed COCs; after 48 hours in culture
Procedure: All procedures used were in accordance with the guidance principals for care and use of laboratory animals of the Laboratory Animal Ethical Commission of Ghent University. Bovine cumulus-oocyte complexes (COCs) were aspirated from ovaries collected at a local slaughterhouse. Immature COCs were recovered from the follicular fluid, washed two times in HEPES-TALP (see below under the heading “Pharmacological agents and solutions” of Materials and Methods), and matured for 22 hours in groups of 60 in […] of modified bicarbonate-buffered TCM199 (Gibco BRL, Life Technologies) supplemented with 20% heat-inactivated fetal calf serum (FCS; Sigma-Aldrich) at 38.5° C. in a humidified 5% CO2 incubator. Vitrification was performed in two steps: an equilibration (EQ) and a vitrification step (VS). Equilibration solution was composed of M199/Hanks/HEPES supplemented with 20% fetal calf serum (FCS)+7.5% ethylene glycol+7.5% DMSO. The vitrification solution contained: M199/Hanks/HEPES supplemented with 20% FCS+15% ethylene glycol, 15% DMSO and 0.5 M sucrose. […]
To determine the cleavage rate, zygotes were washed and placed in groups of 30 in […] droplets of synthetic oviduct fluid (composition see below under “Pharmacological agents and solutions”) supplemented with 5% FCS and cultured at 38.5° C. in 5% CO2, 5% O2, and 90% N2; cleavage rate was determined after 48 hours in culture.

[5] = tested on: ECs and SMCs of saphenous veins; test: TUNEL apoptosis assay on cryopreserved/thawed human saphenous veins; settings: saphenous vein; Gap27 during cryopreservation/thawing only
[6] = tested on: ECs and SMCs of femoral arteries; test: TUNEL apoptosis assay on cryopreserved/thawed human femoral arteries; settings: femoral artery; Gap27 during cryopreservation/thawing only
[7] = tested on: cumulus cells of bovine COCs; test: TUNEL cell death of COCs after simulated transportation
Procedure: COCs were fixed in neutral buffered 4% formalin solution after thawing. Fixed COCs were permeabilized with 0.1% TRITON® X-100 at room temperature (8-minute incubation). COCs were rinsed twice in a phosphate-buffered saline (PBS, see Pharmacological agents and solutions). Cell death was detected by in situ terminal deoxynucleotidyl transferase (TdT)-mediated deoxyuridine triphosphate (dUTP) nick end-labeling (TUNEL), using a commercial In Situ Cell Death Detection Kit (Roche, Vilvoorde, Belgium). COCs were incubated with the TUNEL reaction mixture containing TdT and fluorescein-dUTP for 1 hour at 37° C.; thereafter, they were rinsed three times in PBS and mounted with an antifade solution containing 4′,6-diamidino-2-phenylindole (DAPI) (Vectashield, Lab Consult) for nuclear staining. Slides were examined by epifluorescence microscopy using a Nikon TE300 inverted microscope with a ×10 objective and equipped with a Nikon DS-Ri1 cooled color CCD camera (Nikon Belux, Brussels, Belgium).
[…] This was performed with or without Gap27 peptide (200 μM) present in the transportation phase medium. Afterward, cell death was evaluated via TUNEL assays as described before.
Testing was performed as to whether Gap27 could improve COC viability upon inclusion in the media during a simulated transportation phase (5 hours total duration, see Materials and Methods) applied after the vitrification/thawing procedure. In these experiments, vitrification/thawing were done under control conditions and Gap27 was only present in the transportation medium.

bovine oocytes [8] = test: Fertilization rate of vitrified/thawed COCs; settings: COCs vitrified/thawed in the presence of Gap27
Procedure: All procedures used were in accordance with the guidance principals for care and use of laboratory animals of the Laboratory Animal Ethical Commission of Ghent University. Bovine cumulus-oocyte complexes (COCs) were aspirated from ovaries collected at a local slaughterhouse. Immature COCs were recovered from the follicular fluid, washed two times in HEPES-TALP (see below under the heading “Pharmacological agents and solutions” of Materials and Methods), and matured for 22 hours in groups of 60 in […] of modified bicarbonate-buffered TCM199 (Gibco BRL, Life Technologies) supplemented with 20% heat-inactivated fetal calf serum (FCS; Sigma-Aldrich) at 38.5° C. in a humidified 5% CO2 incubator. Vitrification was performed in two steps: an equilibration (EQ) and a vitrification step (VS). Equilibration solution was composed of M199/Hanks/HEPES supplemented with 20% fetal calf serum (FCS)+7.5% ethylene glycol+7.5% DMSO. The vitrification solution contained: M199/Hanks/HEPES supplemented with 20% FCS+15% ethylene glycol, 15% DMSO and 0.5 M sucrose. The COCs were washed by transferring them sequentially in three drops of 100 μl EQ solution (3 minutes residence in the first two drops and 6 minutes in the last drop) and then placed stepwise in five 100 μl drops VS solution (5 seconds in each drop except for the fifth that lasted 10 seconds). […]

[9] = tested on: bovine cumulus-oocyte complexes (COCs); test: TUNEL cell death assay on COCs after vitrification/thawing
Procedure: Bovine cumulus-oocyte complexes (COCs) were aspirated from ovaries collected at a local slaughterhouse. Immature COCs were recovered from the follicular fluid, washed two times in HEPES-TALP (see below under the heading “Pharmacological agents and solutions” of Materials and Methods), and matured for 22 hours in groups of 60 in 500 mL of modified bicarbonate-buffered TCM199 (Gibco BRL, Life Technologies) supplemented with 20% heat-inactivated fetal calf serum (FCS; Sigma-Aldrich) at 38.5° C. in a humidified 5% CO2 incubator. Vitrification was performed in two steps: an equilibration (EQ) and a vitrification step (VS). Equilibration solution was composed of M199/Hanks/HEPES supplemented with 20% fetal calf serum (FCS)+7.5% ethylene glycol+7.5% DMSO. The vitrification solution contained: M199/Hanks/HEPES supplemented with 20% FCS+15% ethylene glycol, 15% DMSO and 0.5 M sucrose. The COCs were washed by transferring them sequentially in three drops of 100 μl EQ solution (3 minutes residence in the first two drops and 6 minutes in the last drop) and then placed stepwise in five 100 μl drops VS solution (5 seconds in each drop except for the fifth that lasted 10 seconds). The connexin channel inhibitor Gap27 was added to the fifth drop of VS solution at a final concentration of 200 μM (the Gap27 sequence is given below under the heading “Pharmacological agents and solutions” of Materials and Methods). The control condition consisted of a drop solution without any added Gap27. COCs were placed in a manufactured cryotop and transferred immediately to liquid nitrogen (−196° C.).
After 24 hours' storage in liquid nitrogen, the COCs were thawed by transferring them to a warming solution at 37° C. composed of M199/Hanks/HEPES+20% FCS+1.25 M sucrose for 1 minute. This was followed by a three-step wash-out of the hyperosmolar sucrose (reduced from 1.25 M to 0.62, 0.31 and 0 M, respectively; duration of each wash was 3 minutes, 5 minutes and 5 minutes, respectively). In the Gap27 treatment condition, the peptide concentration was gradually diluted over these three washing steps, halving its concentration with each transfer step (reduced from 200 μM in cryopreservation solution to 100, 50 and 0 μM, respectively). In the text that follows, “thawing” denotes the combination of warming and wash out of the hyperosmolarity.
COCs were fixed in neutral buffered 4% formalin solution after thawing. Fixed COCs were permeabilized with 0.1% TRITON® X-100 at room temperature (8-minute incubation). […] Cell death was detected by in situ terminal deoxynucleotidyl transferase (TdT)-mediated deoxyuridine triphosphate (dUTP) nick end-labeling (TUNEL), using a commercial In Situ Cell Death Detection Kit (Roche, Vilvoorde, Belgium). […]

[10] = simulated transportation at 0° C., intact COCs
[11] = simulated transportation at 37° C., cumulus reduced to 1-5 cell layers
[12] = simulated transportation at 37° C., intact cumulus cloud
[13] = cumulus cells, Gap27 during vitrification/thawing

## CN[C@@H]1C[C@H]2O[C@@](C)([C@@H]1OC)n1c3ccccc3c3c4c(c5c6ccccc6n2c5c31)C(=O)NC4 [staurosporine, Staurosporine]
[1]
  TUNEL positivity (in words): massive TUNEL positivity

## Gap27 with a scrambled peptide sequence: scrambled Gap27 control peptide TFEPIRISITK [reference compound]
[2]; ECs and SMCs
  effect on number of TUNEL-positive cells (in words): no significant effects
[3]; ECs and SMCs
  effect on number of TUNEL-positive cells (in words): no significant effects

## Gap27: connexin mimetic peptide, connexin channel inhibitor, SRPTEKTIFII (SEQ ID NO:2) (listed as Homo sapiens)
Bovine oocytes [4]
  cleavage rate: 28%
[5]
  effect on cell death (in words): larger and statistically significant protective effects
[6]
  effect on cell death (in words): larger and statistically significant protective effects
[2]; EC
  Protection relative to total number of cells (%): 11 ± 4 (n = 11) %
  Protection relative to total number of dead cells (%): 32 ± 8 (n = 11) %
[2]; SMC
  Protection relative to total number of cells (%): 6 ± 3 (n = 11) %
  Protection relative to total number of dead cells (%): 73 ± 7 (n = 11) %
[2]; ECs and SMCs
  effect on number of TUNEL-positive cells (in words): visibly reduced; also recorded: significantly reduced
[2]; intimal layer (ECs)
  reduction of TUNEL-positive cell death counts (fraction): more than ⅓
[2]; medial layer (SMCs)
  reduction of TUNEL-positive cell death counts (fraction): more than ⅔
[2]; femoral artery, ECs and SMCs, Gap27 during DMSO washout only
  effect on cell death (in words): slightly (but non-significantly) reduced
[3]; EC
  Protection relative to total number of cells (%): 12 ± 4 (n = 13) %
  Protection relative to total number of dead cells (%): 51 ± 8 (n = 13) %
[3]; SMC
  Protection relative to total number of cells (%): 6 ± 2 (n = 13) %
  Protection relative to total number of dead cells (%): 71 ± 6 (n = 13) %
[3]; saphenous vein, ECs and SMCs, Gap27 during DMSO washout only
  effect on cell death (in words): slightly (but non-significantly) reduced
[3]; ECs and SMCs
  effect on number of TUNEL-positive cells (in words): significantly reduced
[3]; ECs
  reduction of TUNEL-positive cell death counts (fraction): ½
[3]; SMCs
  reduction of TUNEL-positive cell death counts (fraction): more than ½
[7]; simulated transportation 5 hours at 37° C., intact cumulus cloud, Gap27 200 μM in transportation medium
  cell death of cumulus cells: 13.8%
[7]; [10]
  cell death of cumulus cells: 2.82%
  reduction of the dead cell mass: ~53%
  rescue effect of the total cell mass: ~3.1%
[7]; simulated transportation at 37° C., cumulus cell layer reduced to 1-5 cell layers
  cell death of cumulus cells: 7.54%
[7]; [11]
  reduction of the dead cell mass: ~54%
  rescue effect of the total cell mass: ~8.7%
[7]; [12]
  reduction of the mass of dead cells: ~32%
  rescue effect relative to the total mass of cells: ~6.5%
Bovine oocytes [8]
  fertilization rate: 41.2%
[9]; Gap27 200 μM during vitrification/thawing
  cell death (TUNEL assay) of cumulus cells: 1.68%
[9]; after vitrification/thawing, whatever the treatment
  cell death of the oocytes (in words): No cell death of the oocytes
[9]; [13]
  cell mass rescued (effect size relative to the total number of cells): ~2.4%
  reduction relative to the total number of dead cells in control: ~59%
